Literature values as cited in patent US20110003837A1, “MODIFIED RELEASE FORMULATIONS OF HMG COA REDUCTASE INHIBITORS” (LUPIN LIMITED, priority 2008, published 2011).
Read-outs that look alike come from different tables or passages of the source.

What was measured:
[1] = in vivo
[2] = 40 mg daily, clinical trials
[3] = U.S. Pharmacopeia (2002)
[4] = in words
[5] = target: T1, HMG-CoA reductase (Homo sapiens, UniProt P04035)
T1 sequence (P04035 1-888): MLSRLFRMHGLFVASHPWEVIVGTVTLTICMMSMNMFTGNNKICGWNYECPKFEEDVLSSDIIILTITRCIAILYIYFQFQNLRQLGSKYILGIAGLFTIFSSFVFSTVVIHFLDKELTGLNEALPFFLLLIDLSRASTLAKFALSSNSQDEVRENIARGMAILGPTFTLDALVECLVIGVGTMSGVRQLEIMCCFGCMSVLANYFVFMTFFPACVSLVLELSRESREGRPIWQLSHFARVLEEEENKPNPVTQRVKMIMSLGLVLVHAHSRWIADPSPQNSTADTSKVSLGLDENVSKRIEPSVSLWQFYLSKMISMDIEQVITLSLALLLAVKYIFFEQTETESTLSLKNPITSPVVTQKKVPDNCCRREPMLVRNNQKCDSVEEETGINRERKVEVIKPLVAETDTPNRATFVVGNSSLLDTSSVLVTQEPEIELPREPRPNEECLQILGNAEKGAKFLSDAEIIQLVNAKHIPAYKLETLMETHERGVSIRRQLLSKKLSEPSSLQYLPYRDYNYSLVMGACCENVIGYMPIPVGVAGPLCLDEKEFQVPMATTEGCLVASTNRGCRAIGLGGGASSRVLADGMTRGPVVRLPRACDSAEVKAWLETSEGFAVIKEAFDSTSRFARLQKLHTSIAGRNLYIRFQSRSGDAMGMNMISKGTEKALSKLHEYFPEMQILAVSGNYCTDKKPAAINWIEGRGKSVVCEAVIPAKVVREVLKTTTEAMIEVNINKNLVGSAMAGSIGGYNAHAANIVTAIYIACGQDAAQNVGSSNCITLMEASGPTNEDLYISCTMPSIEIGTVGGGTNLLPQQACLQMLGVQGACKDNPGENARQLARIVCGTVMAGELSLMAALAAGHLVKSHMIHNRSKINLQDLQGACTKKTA

CC(C)c1nc(N(C)S(C)(=O)=O)nc(-c2ccc(F)cc2)c1/C=C/[C@@H](O)C[C@@H](O)CC(=O)O (single isomer, unassigned) [rosuvastatin]
Patients with drug levels greater than 50 ng/ml (40 mg): 2% | Patients with drug levels greater than 50 ng/ml (80 mg): 33% | Plasma level at which muscle and or renal toxicity developed (plasma): more than 50 ng/ml | Absorbed dose extracted by the liver [1]: up to 90% | Clearance through biliary excretion [1]: 90% | Elimination half-life (t½) [1]: 20 h | Excreted in the urine [1]: 10% | LDL-C reduction [2]: up to 63% | Solubility class [3]: sparingly soluble | Stability in acidic environments like that found in the stomach [4]: stable in acidic environments | Share of the inhibitory activity of rosuvastatin due to the parent compound [5]: 90%
